Experimental data published in PubChem BioAssay (NCI).
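Test compounds were applied to cells in 96-well plates for 48 hours at 5 doses. The concentration for full growth arrest is given as TGI.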

Tests used:
Assay in all cases: DTP human tumour cell line panel, 48 h
U251 CNS = tested on: U251 CNS
RXF 393 renal = tested on: RXF 393 renal
UACC-62 melanoma = tested on: UACC-62 melanoma
UACC-257 melanoma = tested on: UACC-257 melanoma
786-0 renal = tested on: 786-0 renal
NCI-H522 lung = tested on: NCI-H522 lung
BT-549 breast = tested on: BT-549 breast
M14 melanoma = tested on: M14 melanoma
SW-620 colon = tested on: SW-620 colon
SK-MEL-5 melanoma = tested on: SK-MEL-5 melanoma
KM12 colon = tested on: KM12 colon
OVCAR-3 ovarian = tested on: OVCAR-3 ovarian
MCF7 breast = tested on: MCF7 breast
SF-295 CNS = tested on: SF-295 CNS
SK-OV-3 ovarian = tested on: SK-OV-3 ovarian
SK-MEL-28 melanoma = tested on: SK-MEL-28 melanoma
HOP-62 NSCLC = tested on: HOP-62 NSCLC
TK-10 renal = tested on: TK-10 renal
LOX IMVI melanoma = tested on: LOX IMVI melanoma
OVCAR-4 ovarian = tested on: OVCAR-4 ovarian
MALME-3M melanoma = tested on: MALME-3M melanoma
HCC-2998 colon = tested on: HCC-2998 colon
NCI/ADR-RES ovarian = tested on: NCI/ADR-RES ovarian
MOLT-4 leukemia = tested on: MOLT-4 leukemia
SN12C renal = tested on: SN12C renal
NCI-H226 lung = tested on: NCI-H226 lung
SF-539 CNS = tested on: SF-539 CNS
T-47D breast = tested on: T-47D breast
NCI-H23 lung = tested on: NCI-H23 lung
UO-31 renal = tested on: UO-31 renal
CAKI-1 renal = tested on: CAKI-1 renal
RPMI-8226 leukemia = tested on: RPMI-8226 leukemia
OVCAR-5 ovarian = tested on: OVCAR-5 ovarian
SNB-19 CNS = tested on: SNB-19 CNS
HCT-116 colon = tested on: HCT-116 colon
SK-MEL-2 melanoma = tested on: SK-MEL-2 melanoma
HOP-92 NSCLC = tested on: HOP-92 NSCLC
MDA-MB-231 breast = tested on: MDA-MB-231 breast
ACHN renal = tested on: ACHN renal
COLO 205 colon = tested on: COLO 205 colon
MDA-N = tested on: MDA-N
OVCAR-8 ovarian = tested on: OVCAR-8 ovarian
MDA-MB-435 = tested on: MDA-MB-435
K-562 leukemia = tested on: K-562 leukemia
DU-145 prostate = tested on: DU-145 prostate
HT29 colon = tested on: HT29 colon
A498 renal = tested on: A498 renal
IGROV1 ovarian = tested on: IGROV1 ovarian
SF-268 CNS = tested on: SF-268 CNS
HL-60(TB) leukemia = tested on: HL-60(TB) leukemia
HS 578T breast = tested on: HS 578T breast
A549 NSCLC = tested on: A549 NSCLC
CCRF-CEM leukemia = tested on: CCRF-CEM leukemia
HCT-15 colon = tested on: HCT-15 colon
EKVX NSCLC = tested on: EKVX NSCLC
PC-3 prostate = tested on: PC-3 prostate
NCI-H460 lung = tested on: NCI-H460 lung

In the case of `CCCCCc1cccc(=O)o1`, the TGI (U251 CNS) is reported as over 100 µM, the TGI (RXF 393 renal) is reported as over 100 µM and the TGI (UACC-62 melanoma) is reported as over 100 µM. It also gave a TGI (UACC-257 melanoma) of over 100 µM, a TGI (786-0 renal) of over 100 µM and a TGI (NCI-H522 lung) of over 100 µM. For the same compound, the TGI (BT-549 breast) was over 100 µM, the TGI (M14 melanoma) was over 100 µM and the TGI (SW-620 colon) was over 100 µM. It also gave a TGI (SK-MEL-5 melanoma) of over 100 µM, a TGI (KM12 colon) of over 100 µM and a TGI (OVCAR-3 ovarian) of over 100 µM. It also gave a TGI (MCF7 breast) of over 100 µM, a TGI (SF-295 CNS) of over 100 µM and a TGI (SK-OV-3 ovarian) of over 100 µM. The TGI (SK-MEL-28 melanoma) was over 100 µM, the TGI (HOP-62 NSCLC) was over 100 µM and the TGI (TK-10 renal) was over 100 µM. For the same compound, the TGI (LOX IMVI melanoma) was over 100 µM, the TGI (OVCAR-4 ovarian) was over 100 µM and the TGI (MALME-3M melanoma) was over 100 µM. It also gave a TGI (HCC-2998 colon) of over 100 µM, a TGI (NCI/ADR-RES ovarian) of over 100 µM and a TGI (MOLT-4 leukemia) of over 100 µM. The TGI (SN12C renal) was over 100 µM, the TGI (NCI-H226 lung) was over 100 µM and the TGI (SF-539 CNS) was over 100 µM. The TGI (T-47D breast) was over 100 µM, the TGI (NCI-H23 lung) was over 100 µM and the TGI (UO-31 renal) was over 100 µM. It also gave a TGI (CAKI-1 renal) of over 100 µM, a TGI (RPMI-8226 leukemia) of over 100 µM and a TGI (OVCAR-5 ovarian) of over 100 µM. The TGI (SNB-19 CNS) was over 100 µM, the TGI (HCT-116 colon) was over 100 µM and the TGI (SK-MEL-2 melanoma) was over 100 µM. It also gave a TGI (HOP-92 NSCLC) of over 100 µM, a TGI (MDA-MB-231 breast) of over 100 µM and a TGI (ACHN renal) of over 100 µM. It also gave a TGI (COLO 205 colon) of over 100 µM, a TGI (MDA-N) of over 100 µM and a TGI (OVCAR-8 ovarian) of over 100 µM. For the same compound, the TGI (MDA-MB-435) was over 100 µM, the TGI (K-562 leukemia) was over 100 µM and the TGI (DU-145 prostate) was over 100 µM. For the same compound, the TGI (HT29 colon) was over 100 µM, the TGI (A498 renal) was over 100 µM and the TGI (IGROV1 ovarian) was over 100 µM. For the same compound, the TGI (SF-268 CNS) was over 100 µM, the TGI (HL-60(TB) leukemia) was over 100 µM and the TGI (HS 578T breast) was over 100 µM. For the same compound, the TGI (A549 NSCLC) was over 100 µM, the TGI (CCRF-CEM leukemia) was over 100 µM and the TGI (HCT-15 colon) was over 100 µM. It also gave a TGI (EKVX NSCLC) of over 100 µM, a TGI (PC-3 prostate) of over 100 µM and a TGI (NCI-H460 lung) of over 100 µM.
In the case of `O=C(O)c1ccc(C=C2Sc3ccccc3S2)cc1`, the TGI (U251 CNS) is reported as over 100 µM, the TGI (RXF 393 renal) is reported as over 100 µM and the TGI (UACC-62 melanoma) is reported as 95.2 µM. The TGI (UACC-257 melanoma) was over 100 µM, the TGI (786-0 renal) was over 100 µM and the TGI (NCI-H522 lung) was over 100 µM. It also gave a TGI (BT-549 breast) of over 100 µM, a TGI (M14 melanoma) of over 100 µM and a TGI (SW-620 colon) of over 100 µM. For the same compound, the TGI (SK-MEL-5 melanoma) was over 100 µM, the TGI (KM12 colon) was over 100 µM and the TGI (OVCAR-3 ovarian) was 83 µM. The TGI (MCF7 breast) was over 100 µM, the TGI (SF-295 CNS) was over 100 µM and the TGI (SK-OV-3 ovarian) was over 100 µM. The TGI (HOP-62 NSCLC) was over 100 µM, the TGI (TK-10 renal) was over 100 µM and the TGI (LOX IMVI melanoma) was over 100 µM. It also gave a TGI (OVCAR-4 ovarian) of over 100 µM, a TGI (MALME-3M melanoma) of over 100 µM and a TGI (HCC-2998 colon) of 42.5 µM. For the same compound, the TGI (NCI/ADR-RES ovarian) was over 100 µM, the TGI (MOLT-4 leukemia) was over 100 µM and the TGI (SN12C renal) was over 100 µM. It also gave a TGI (NCI-H226 lung) of over 100 µM, a TGI (SF-539 CNS) of over 100 µM and a TGI (T-47D breast) of over 100 µM. The TGI (NCI-H23 lung) was over 100 µM, the TGI (UO-31 renal) was over 100 µM and the TGI (CAKI-1 renal) was over 100 µM. It also gave a TGI (RPMI-8226 leukemia) of over 100 µM, a TGI (OVCAR-5 ovarian) of over 100 µM and a TGI (SNB-19 CNS) of over 100 µM. The TGI (HCT-116 colon) was over 100 µM, the TGI (SK-MEL-2 melanoma) was over 100 µM and the TGI (HOP-92 NSCLC) was over 100 µM. It also gave a TGI (MDA-MB-231 breast) of over 100 µM, a TGI (ACHN renal) of 74.2 µM and a TGI (COLO 205 colon) of over 100 µM. It also gave a TGI (MDA-N) of 81.2 µM, a TGI (OVCAR-8 ovarian) of over 100 µM and a TGI (MDA-MB-435) of 44.9 µM. For the same compound, the TGI (K-562 leukemia) was over 100 µM, the TGI (DU-145 prostate) was over 100 µM and the TGI (HT29 colon) was over 100 µM. The TGI (A498 renal) was 39.6 µM, the TGI (IGROV1 ovarian) was over 100 µM and the TGI (SF-268 CNS) was over 100 µM. For the same compound, the TGI (HL-60(TB) leukemia) was over 100 µM, the TGI (HS 578T breast) was over 100 µM and the TGI (A549 NSCLC) was over 100 µM. For the same compound, the TGI (CCRF-CEM leukemia) was over 100 µM, the TGI (HCT-15 colon) was over 100 µM and the TGI (EKVX NSCLC) was over 100 µM. It also gave a TGI (PC-3 prostate) of over 100 µM and a TGI (NCI-H460 lung) of over 100 µM.
